# Laboratory results as given in US9296725B2, “Heterocyclyl pyrimidine analogues as TYK2 inhibitors” (Cellzome Limited, priority 2012, dated 2016).
# How the values were obtained:
# TYK2 = biological target: T1, TYK2 (Homo sapiens, UniProt P29597); experiment: Kinobeads assay, TYK2 (competition binding in mixed Molt4/Ramos cell lysate, dot blot detection); conditions: Kinobeads assay, Molt4/Ramos lysate; read-out: TYK2 Band (Kinobeads assay potency, IC50)
# T1 construct: endogenous in cells; host or cells: Molt4 (ATCC CRL-1582) and Ramos (ATCC CRL-1596), mixed lysate 1:2
# T1 sequence (P29597 whole entry): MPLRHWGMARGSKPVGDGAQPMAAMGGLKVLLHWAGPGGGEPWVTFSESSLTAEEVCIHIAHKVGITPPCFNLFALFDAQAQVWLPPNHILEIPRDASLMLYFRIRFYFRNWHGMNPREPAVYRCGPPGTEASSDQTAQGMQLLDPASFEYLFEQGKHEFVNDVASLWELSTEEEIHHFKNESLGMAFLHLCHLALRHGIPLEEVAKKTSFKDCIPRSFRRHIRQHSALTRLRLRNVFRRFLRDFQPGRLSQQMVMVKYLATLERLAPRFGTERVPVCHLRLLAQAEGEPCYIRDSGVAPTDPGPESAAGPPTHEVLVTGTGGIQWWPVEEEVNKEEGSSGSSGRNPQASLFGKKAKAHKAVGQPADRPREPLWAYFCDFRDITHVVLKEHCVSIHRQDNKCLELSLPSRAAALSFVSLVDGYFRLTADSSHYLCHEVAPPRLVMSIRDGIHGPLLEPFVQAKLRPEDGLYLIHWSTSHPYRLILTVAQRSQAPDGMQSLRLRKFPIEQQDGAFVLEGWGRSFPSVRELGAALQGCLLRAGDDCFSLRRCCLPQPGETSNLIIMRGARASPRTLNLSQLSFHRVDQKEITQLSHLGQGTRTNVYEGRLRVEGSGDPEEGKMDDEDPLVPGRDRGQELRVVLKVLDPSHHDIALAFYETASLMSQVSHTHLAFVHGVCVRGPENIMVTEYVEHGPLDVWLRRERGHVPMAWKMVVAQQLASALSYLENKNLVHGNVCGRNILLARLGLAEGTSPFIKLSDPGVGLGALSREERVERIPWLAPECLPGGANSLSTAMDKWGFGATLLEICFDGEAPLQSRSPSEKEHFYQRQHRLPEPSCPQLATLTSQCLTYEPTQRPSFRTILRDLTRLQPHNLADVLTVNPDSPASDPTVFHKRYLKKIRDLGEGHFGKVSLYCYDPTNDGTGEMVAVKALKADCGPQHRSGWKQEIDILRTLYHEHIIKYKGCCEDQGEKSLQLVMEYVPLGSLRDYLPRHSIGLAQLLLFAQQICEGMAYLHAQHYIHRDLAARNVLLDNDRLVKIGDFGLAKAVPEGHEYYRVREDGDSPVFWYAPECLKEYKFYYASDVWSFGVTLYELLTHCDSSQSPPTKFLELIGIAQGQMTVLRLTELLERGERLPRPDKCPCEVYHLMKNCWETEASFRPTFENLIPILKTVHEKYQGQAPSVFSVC
# In short: (§1)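 Competition binding: compound dilutions (1:3 series, 9 steps) plus immobilized aminopyrido-pyrimidine beads incubated 3 h in the cold with mixed Molt4/Ramos lysate (1:2) at 10 mg/mL protein. Bead-bound JAK2/TYK2 eluted and quantified by antibody dot blot with infrared detection; IC50 from dose-response curves.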
# JAK2 = biological target: T2, JAK2 (Homo sapiens, UniProt O60674); experiment: Kinobeads assay, JAK2 (competition binding in mixed Molt4/Ramos cell lysate, dot blot detection); conditions: read-out: JAK2 Band (Kinobeads assay potency, IC50)
# T2 construct: endogenous in cells; host or cells: Molt4 (ATCC CRL-1582) and Ramos (ATCC CRL-1596), mixed lysate 1:2
# T2 sequence (O60674 whole entry): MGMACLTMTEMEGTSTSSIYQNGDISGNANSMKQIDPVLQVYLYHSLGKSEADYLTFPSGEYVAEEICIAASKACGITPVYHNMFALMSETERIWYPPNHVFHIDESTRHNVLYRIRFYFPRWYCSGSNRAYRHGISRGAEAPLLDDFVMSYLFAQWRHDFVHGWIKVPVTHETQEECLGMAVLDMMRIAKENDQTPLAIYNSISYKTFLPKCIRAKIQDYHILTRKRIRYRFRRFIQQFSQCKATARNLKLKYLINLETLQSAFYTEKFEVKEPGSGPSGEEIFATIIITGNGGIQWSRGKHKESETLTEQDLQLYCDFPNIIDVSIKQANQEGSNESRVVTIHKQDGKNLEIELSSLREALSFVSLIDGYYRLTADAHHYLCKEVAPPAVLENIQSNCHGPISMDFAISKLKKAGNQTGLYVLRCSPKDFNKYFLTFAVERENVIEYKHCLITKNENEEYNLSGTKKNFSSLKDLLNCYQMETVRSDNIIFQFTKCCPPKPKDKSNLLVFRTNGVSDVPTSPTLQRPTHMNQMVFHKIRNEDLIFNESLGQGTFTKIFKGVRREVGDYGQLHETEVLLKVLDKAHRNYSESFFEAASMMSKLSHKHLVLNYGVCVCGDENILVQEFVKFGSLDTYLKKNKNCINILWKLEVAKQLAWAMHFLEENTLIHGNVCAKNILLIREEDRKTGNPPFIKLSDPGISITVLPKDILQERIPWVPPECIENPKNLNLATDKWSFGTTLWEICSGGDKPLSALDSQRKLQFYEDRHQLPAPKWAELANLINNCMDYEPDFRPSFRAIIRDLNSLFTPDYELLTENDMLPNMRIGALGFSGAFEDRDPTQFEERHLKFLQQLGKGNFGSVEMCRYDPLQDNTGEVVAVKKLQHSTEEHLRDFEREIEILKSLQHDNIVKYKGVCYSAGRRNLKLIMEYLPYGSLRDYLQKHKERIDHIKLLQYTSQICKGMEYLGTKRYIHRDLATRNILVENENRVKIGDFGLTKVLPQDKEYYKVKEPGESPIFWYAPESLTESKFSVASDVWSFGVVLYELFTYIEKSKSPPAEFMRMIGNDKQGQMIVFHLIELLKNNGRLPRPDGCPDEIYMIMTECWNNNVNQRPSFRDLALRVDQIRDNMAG
# In short: as §1
Compound,IC50 (TYK2) [nM],IC50 (JAK2) [nM]
Cc1cnc(Nc2cnn(CC(=O)NC3CCOC3)c2)nc1NCc1c(F)cc(F)cc1F (stereo not drawn) [Example I-37],10 to 100,100 to 1000
COc1ccc(Cl)c(CNc2ccnc(Nc3cnn(C)c3)n2)c1F [Example I-61],10 to 100,100 to 1000
Cn1cc(Nc2ncc(Cl)c(NCc3cccc(C#N)c3)n2)cn1 [Example I-159],10 to 100,1000 to 10000
CC(C)NC(=O)Cn1cc(Nc2nccc(NCc3c(Cl)cccc3Cl)n2)cn1 [Example I-76],10 to 100,> 10000
Cn1cc(Nc2ncc(Cl)c(NCc3cc(F)cc(F)c3)n2)cn1 [Example I-176],10 to 100,10 to 100
O=C(Cn1cc(Nc2ncc(Cl)c(NCc3ccccc3)n2)cn1)N1CCOCC1 [Example I-160],10 to 100,1000 to 10000
COc1cccc(CNc2nc(Nc3cnn(CC(=O)N(C)C)c3)ncc2Cl)c1 [Example I-244],100 to 1000,1000 to 10000
CNC(=O)Cn1cc(Nc2ncc(C)c(NCc3c(F)ccc(F)c3F)n2)cn1 [Example I-421],≤ 10,100 to 1000
CC(C)NC(=O)Cn1cc(Nc2nccc(NCc3c(F)cc(F)cc3Cl)n2)cn1 [Example I-94],10 to 100,1000 to 10000
CC1(C)COCCN1C(=O)Cn1cc(Nc2ncc(F)c(NCc3c(F)cc(F)cc3F)n2)cn1 [Example I-309],10 to 100,1000 to 10000
N#Cc1c(F)cccc1CNc1nc(Nc2cnn(CCO)c2)ncc1Cl [Example I-287],100 to 1000,100 to 1000
Cn1cc(Nc2ncc(F)c(NCc3c(F)c(F)cc(F)c3F)n2)cn1 [Example I-462],100 to 1000,1000 to 10000
O=C(Cn1cc(Nc2ncc(F)c(NCc3c(F)cc(F)cc3F)n2)cn1)NCC(F)(F)F [Example I-252],10 to 100,> 10000
CN(C)C(=O)Cn1cc(Nc2ncc(F)c(NCc3c(Cl)cccc3Cl)n2)cn1 [Example I-251],10 to 100,1000 to 10000
CN(C)S(=O)(=O)c1ccccc1CNc1nc(Nc2cnn(C)c2)ncc1Cl [Example I-474],100 to 1000,100 to 1000
COc1cc(F)c(CNc2nc(Nc3cnn(C)c3)ncc2C)c(F)c1 [Example I-314],10 to 100,1000 to 10000
Cc1cnc(Nc2cnn(CC(F)(F)F)c2)nc1NCc1cc(F)cc(F)c1F [Example I-351],1000 to 10000,1000 to 10000
NC(=O)Cn1cc(Nc2ncc(Cl)c(NCc3c(F)cc(F)cc3F)n2)cn1 [Example I-387],10 to 100,1000 to 10000
CS(=O)(=O)c1ccc(F)cc1CNc1nc(Nc2cnn(CC(=O)NC3CC3)c2)ncc1Cl [Example I-74],10 to 100,100 to 1000
CS(=O)(=O)c1ccc(F)c(CNc2nc(Nc3cn[nH]c3)ncc2F)c1 [Example I-114],10 to 100,1000 to 10000
CC(C)(C)OC(=O)N1CC2(CN(C(=O)Cn3cc(Nc4ncc(Cl)c(NCc5ccccc5)n4)cn3)C2)C1 [Example I-220],100 to 1000,1000 to 10000
Cn1cc(Nc2nccc(NCc3c(Cl)ccc(F)c3F)n2)cn1 [Example I-68],10 to 100,100 to 1000

Compound,IC50 (TYK2) [nM],IC50 (JAK2) [nM]
CS(=O)(=O)c1ccccc1CNc1nc(Nc2cnn(CC(F)F)c2)ncc1F [Example I-477],1000 to 10000,1000 to 10000
CN(C)C(=O)Cn1cc(Nc2ncc(Cl)c(NCc3c(Cl)cccc3Cl)n2)cn1 [Example I-326],10 to 100,100 to 1000
N#Cc1cccc(CNc2nc(Nc3cnn(CC(=O)N4CCOCC4)c3)ncc2Cl)c1 [Example I-172],10 to 100,100 to 1000
"CCNC(=O)Cn1cc(Nc2nccc(NCc3c(F)cc(F)cc3F)n2)cn1 [Example I-6, N-ethyl-2-(4-((4-((2,4,6-trifluorobenzyl)amino)pyrimidin-2-yl)amino)-1H-pyrazol-1-yl)acetamide]",10 to 100,1000 to 10000
Cc1cnc(Nc2cnn(C)c2)nc1NCc1cc(F)cc(F)c1 [Example I-343],10 to 100,10 to 100
CS(=O)(=O)c1cccc(CNc2nc(Nc3cnn(CC(N)=O)c3)ncc2Cl)c1 [Example I-439],100 to 1000,100 to 1000
NS(=O)(=O)c1ccc(CNc2nc(Nc3cnn(CCO)c3)ncc2F)cc1 [Example I-9],10 to 100,> 10000
CCOc1ccc(F)c(CNc2nc(Nc3cnn(CC(N)=O)c3)ncc2Cl)c1F [Example I-267],10 to 100,100 to 1000
O=C(Cn1cc(Nc2ncc(F)c(NCc3cccc(OC(F)F)c3)n2)cn1)NC1CC1 [Example I-46],10 to 100,> 10000
"CCOC(=O)Cn1cc(Nc2ncc(F)c(NCc3c(F)cc(F)cc3F)n2)cn1 [Example I-54, Ethyl 2-(4-((5-fluoro-4-((2,4,6-trifluorobenzyl)amino)pyrimidin-2-yl)amino)-1H-pyrazol-1-yl)acetate]",10 to 100,1000 to 10000
Cc1cnc(Nc2cnn(CCO)c2)nc1NCc1ccccc1 [Example I-169],100 to 1000,1000 to 10000
CS(=O)(=O)c1cccc(CNc2nc(Nc3cnn(CCO)c3)ncc2Cl)c1 [Example I-363],100 to 1000,1000 to 10000
CC(C)N(C)C(=O)Cn1cc(Nc2ncc(F)c(NCc3c(F)cc(F)cc3F)n2)cn1 [Example I-59],≤ 10,1000 to 10000
NC(=O)Cn1cc(Nc2nccc(NCc3c(F)cccc3F)n2)cn1 [Example I-313],10 to 100,1000 to 10000
Cn1cc(Nc2nccc(NCc3c(F)cccc3F)n2)cn1 [Example I-312],100 to 1000,> 10000
CNC(=O)Cn1cc(Nc2ncc(F)c(NCc3c(F)ccc(F)c3F)n2)cn1 [Example I-410],10 to 100,1000 to 10000
OCCn1cc(Nc2ncc(Cl)c(NCc3ccccc3C(F)(F)F)n2)cn1 [Example I-191],100 to 1000,1000 to 10000
CS(=O)(=O)NCc1cccc(CNc2nc(Nc3cnn(CCO)c3)ncc2F)c1 [Example I-415],100 to 1000,1000 to 10000
Cn1cc(Nc2ncc(Cl)c(NCc3cc(Br)ccc3F)n2)cn1 [Example I-218],100 to 1000,100 to 1000
NC(=O)Cn1cc(Nc2ncc(Cl)c(NCc3cccnc3O)n2)cn1 [Example I-405],1000 to 10000,1000 to 10000
Cn1cc(Nc2ncc(Cl)c(NCc3cc(F)cc(C(F)(F)F)c3)n2)cn1 [Example I-166],100 to 1000,1000 to 10000
Cn1cc(Nc2ncc(Cl)c(NCc3cccnc3F)n2)cn1 [Example I-406],100 to 1000,100 to 1000

Compound,IC50 (TYK2) [nM],IC50 (JAK2) [nM]
O=C(O)Cn1cc(Nc2ncc(F)c(NCc3c(F)cc(F)cc3F)n2)cn1 [Example I-307],10 to 100,> 10000
CS(=O)(=O)NCc1cccc(CNc2nc(Nc3cnn(CC(N)=O)c3)ncc2Cl)c1 [Example I-397],100 to 1000,1000 to 10000
N#Cc1cccc(CNc2nc(Nc3cnn(CCO)c3)ncc2Cl)c1 [Example I-182],10 to 100,100 to 1000
C[C@@H](CO)NC(=O)Cn1cc(Nc2nccc(NCc3c(F)cccc3Cl)n2)cn1 [Example I-120],≤ 10,1000 to 10000
CCOc1ccc(F)c(CNc2nc(Nc3cnn(CCO)c3)ncc2Cl)c1F [Example I-358],10 to 100,100 to 1000
COc1ccc(F)c(CNc2nc(Nc3cnn(CC(=O)O)c3)ncc2F)c1F [Example I-426],10 to 100,> 10000
CN(CC#N)C(=O)Cn1cc(Nc2ncc(Cl)c(NCc3ccccc3)n2)cn1 [Example I-238],100 to 1000,1000 to 10000
CS(=O)(=O)CCn1cc(Nc2ncc(Cl)c(NCc3ccccc3)n2)cn1 [Example I-289],1000 to 10000,1000 to 10000
Cc1cnc(Nc2cnn(CCO)c2)nc1NCc1ccc(S(N)(=O)=O)cc1 [Example I-8],10 to 100,1000 to 10000
Fc1cccc(CNc2nc(Nc3cn[nH]c3)ncc2Cl)c1C(F)(F)F [Example I-136],10 to 100,100 to 1000
O=C(Cn1cc(Nc2nccc(NCc3c(F)cc(F)cc3F)n2)cn1)NCCO [Example I-89],10 to 100,1000 to 10000
Cc1cnc(Nc2cnn(CC(N)=O)c2)nc1NCc1ccccc1S(C)(=O)=O [Example I-434],100 to 1000,1000 to 10000
Cc1cnc(Nc2cnn(CC(=O)N(C)C)c2)nc1NCc1c(F)cc(F)cc1F [Example I-19],10 to 100,100 to 1000
COc1ccc(F)c(CNc2nc(Nc3cnn(CC(N)=O)c3)ncc2Cl)c1F [Example I-375],10 to 100,100 to 1000
CNC(=O)Cn1cc(Nc2ncc(Cl)c(NCc3cccc(F)c3)n2)cn1 [Example I-212],100 to 1000,100 to 1000
Cc1cnc(Nc2cnn(CC(F)F)c2)nc1NCc1cccc(F)c1F [Example I-347],1000 to 10000,1000 to 10000
CNC(=O)Cn1cc(Nc2ncc(Cl)c(NCc3c(F)ccc(C)c3F)n2)cn1 [Example I-284],10 to 100,1000 to 10000
COCCNC(=O)Cn1cc(Nc2ncc(Cl)c(NCc3ccccc3)n2)cn1 [Example I-273],100 to 1000,1000 to 10000
Cc1cnc(Nc2cnn(CC(=O)N3CCOCC3)c2)nc1NCc1c(F)ccc(F)c1F [Example I-423],≤ 10,100 to 1000
CNC(=O)Cn1cc(Nc2ncc(Cl)c(NCc3cc(F)ccc3S(C)(=O)=O)n2)cn1 [Example I-438],10 to 100,100 to 1000
COc1cc(F)c(CNc2nc(Nc3cnn(CC(N)=O)c3)ncc2C)c(F)c1 [Example I-315],10 to 100,1000 to 10000
C[C@@H](C(N)=O)n1cc(Nc2ncc(Cl)c(NCc3ccccc3)n2)cn1 [Example I-291],100 to 1000,1000 to 10000
